Reference: patent US20090117563A1, “Identification of TRPML3 (MCOLN3) as a Salty Taste Receptor and Use in Assays for Identifying Taste (Salty) Modulators and/or Therapeutics that Modulate Sodium Transport, Absorption or Excretion and/or Aldosterone and/or Vasopressin Production or Release” (priority 2007, published 2009)
Numbering of substitutions follows the chain as printed.

T1: human TRPML3 (Homo sapiens, UniProt Q8TDD5)
T1 construct: expressed in transfected cells
T1 sequence (Q8TDD5 1-553): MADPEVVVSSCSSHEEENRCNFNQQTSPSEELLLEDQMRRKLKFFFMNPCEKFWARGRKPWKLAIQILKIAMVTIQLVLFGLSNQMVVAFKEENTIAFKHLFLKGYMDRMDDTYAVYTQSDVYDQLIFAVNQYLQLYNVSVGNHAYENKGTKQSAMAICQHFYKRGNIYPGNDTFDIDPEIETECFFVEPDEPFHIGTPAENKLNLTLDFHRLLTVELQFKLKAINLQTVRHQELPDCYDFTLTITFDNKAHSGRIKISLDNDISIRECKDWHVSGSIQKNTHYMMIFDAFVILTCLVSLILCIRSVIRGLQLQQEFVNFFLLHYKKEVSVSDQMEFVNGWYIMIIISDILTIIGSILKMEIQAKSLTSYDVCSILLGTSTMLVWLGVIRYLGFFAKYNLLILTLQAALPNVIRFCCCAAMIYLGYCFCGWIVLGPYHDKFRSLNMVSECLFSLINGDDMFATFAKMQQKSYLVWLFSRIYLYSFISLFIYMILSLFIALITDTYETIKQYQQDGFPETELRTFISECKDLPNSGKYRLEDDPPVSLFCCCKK

T2: A419P TRPML3 (Homo sapiens, UniProt Q8TDD5, A419P)
T2 construct: expressed in transfected cells
T2 sequence (Q8TDD5 1-553 A419P): T1 sequence (Q8TDD5 1-553) with A419P

T3: Homo sapiens TRPML3 A419P, expressed in HEK293 cells (human, UniProt Q8TDD5 1-553)
T3 sequence: T1 sequence (Q8TDD5 1-553) with A419P

B1: Homo sapiens TRPML3 (NM_018298), wild-type, non codon optimized cDNA, expressed in HEK293 cells (other)
chain: T1 sequence (Q8TDD5 1-553)

Tests used:
[1] = test system: human salty taste (sodium chloride taste intensity); assay: Human salty taste perception (perceived salt intensity); format: in vivo; details: tested at 300-fold (amiloride) and 3000-fold above IC50 values for alpha beta gamma ENaC
Description: Unlike other mammals, amiloride only slightly reduces the intensity of sodium chloride taste, i.e., by about 15-20% when used at concentrations that specifically modulate ENaC function (Halpern, B. P. (1998) Neuroscience and Behavioral Reviews. 23: 5-47). […] Based thereon, it was theorized that other (ENaC genes) were involved in human salty taste perception.

[2] = test system: human salty taste (sodium chloride taste intensity); details: concentrations that specifically modulate ENaC function; cited from earlier work
human TRPML3 = molecular target: T1, human TRPML3; assay: Whole cell patch clamp electrophysiology of cells expressing human TRPML3; format: cell-based
Description: The whole cell voltage clamp technique is an electrophysiology method that measures the macroscopic electrical current flowing across the entire plasma membrane though protein channels. Live mammalian cells are placed in a special microscope chamber containing extracellular solution. Guided by a micromanipulator and under visual control, a small diameter glass pipette filled with an electrically conductive salt solution is first attached to the cell membrane using gentle negative pressure resulting in a high resistance gigaOhm seal. The membrane patch within the pipette is disrupted using further suction resulting in the whole cell patch clamp configuration. The whole cell patch clamp configuration allows the combined measurement of all ion channels proteins within the membrane or macroscopic current. Using the patch clamp amplifier in combination with the whole-cell patch clamp configuration allows the operator to control the voltage, or potential difference across the entire cell membrane, as well as the both the internal and external ionic composition of the cell. […]

αENaC = molecular target: T4, αENaC (Homo sapiens, UniProt P37088); assay: FLIPR membrane potential dye assay, HEK293 cells transfected with αENaC; format: cell-based; details: 30 uM Amiloride; αENaC versus A419P-TRPML3 transfected cells
T4 construct: expressed in transfected cells; host or cells: HEK293, transient transfection
Protocol: (§1) HEK293 cells were transiently transfected with RFP, αENaC or A419P-TRPML3 and were loaded with a membrane potential dye (R-8034; Molecular Devices) in HBSS at room temperature for 30 minutes. Membrane potential (fluorescent signal) was monitored on a FLIPR system (Molecular Devices).
(§2) HEK293 cells were transiently transfected with RFP, A419P-TRPML3 or αENaC plasmid and were loaded with a membrane potential dye (R-8034; Molecular Devices) in HBSS at room temperature for 30 minutes. HBSS (control), 3 mM gadolinium and 30 uM Amiloride were added to the cells and resulting changes in membrane potential (fluorescent signal) was monitored on a FLIPR system (Molecular Devices).

A419P TRPML3 = molecular target: T2, A419P TRPML3; assay: FLIPR membrane potential dye assay, HEK293 cells expressing A419P-TRPML3; format: cell-based; details: amiloride
Description: Specific cell-based assays for the discovery of TRPML3 modulators were developed which that could ultimately be used in food and beverages to modulate saltiness perception. A419P-TRPML3 function was monitored in HEK293 cells transiently transfected or transduced with the gene encoding A419P-TRPML3 and using specific membrane potential dyes (FMPs; Molecular Devices).
as §1
HEK293 cells were transiently transfected with RFP or A419P-TRPML3 and were loaded with a membrane potential dye (R-8034; Molecular Devices) in HBSS at room temperature for 30 minutes. Membrane potential (fluorescent signal) was monitored on a FLIPR system (Molecular Devices).
HEK293 cells were transiently transfected with RFP or A419P-TRPML3 and were loaded with a membrane potential dye (R-8034; Molecular Devices) in HBSS at room temperature for 30 minutes. HBSS, NMDG and increasing concentrations of gadolinium were added to the cells and resulting changes in membrane potential (fluorescent signal) was monitored on a FLIPR system (Molecular Devices).
as §2

[3] = molecular target: T3, Homo sapiens TRPML3 A419P, expressed in …; assay: cell-based or functional assay

T4 sequence (P37088 whole entry): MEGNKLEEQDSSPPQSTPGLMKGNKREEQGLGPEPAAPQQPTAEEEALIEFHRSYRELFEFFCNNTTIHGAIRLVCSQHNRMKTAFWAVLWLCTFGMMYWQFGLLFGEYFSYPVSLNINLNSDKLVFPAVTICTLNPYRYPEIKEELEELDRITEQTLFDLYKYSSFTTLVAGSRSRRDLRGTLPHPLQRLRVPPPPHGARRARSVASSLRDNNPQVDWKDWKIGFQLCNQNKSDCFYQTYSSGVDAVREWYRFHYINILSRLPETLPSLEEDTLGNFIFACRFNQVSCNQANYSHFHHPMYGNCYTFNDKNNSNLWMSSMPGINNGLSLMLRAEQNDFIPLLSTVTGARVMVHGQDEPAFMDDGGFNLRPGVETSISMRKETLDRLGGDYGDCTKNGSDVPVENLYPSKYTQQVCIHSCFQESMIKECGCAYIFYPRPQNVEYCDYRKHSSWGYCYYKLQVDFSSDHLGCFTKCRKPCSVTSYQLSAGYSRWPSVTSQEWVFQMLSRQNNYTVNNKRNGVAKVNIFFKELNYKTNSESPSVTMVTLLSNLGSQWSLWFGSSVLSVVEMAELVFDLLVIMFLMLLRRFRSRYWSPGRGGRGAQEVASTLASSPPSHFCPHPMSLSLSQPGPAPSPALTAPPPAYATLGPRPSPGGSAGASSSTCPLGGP

| Molecule | effect on perceived human salt intensity [1] | reduction of the intensity of sodium chloride taste [2] | block of TRPML3 sodium conductance (current-voltage curves) (human TRPML3; 30 uM amiloride) | block of TRPML3 (human TRPML3; no concentration given) | effect on basal fluorescence counts, specificity (αENaC) | effect on the increased basal fluorescence elicited by A419P-TRPML3 (A419P TRPML3) | inward currents, whole cell patch clamp, HEK293 cells coexpressing A419P (0.5 ug) and WT (1.5 ug) TRPML3 cDNAs [3] |
| --- | --- | --- | --- | --- | --- | --- | --- |
| N=C(N)NC(=O)c1nc(Cl)c(N)nc1N [amiloride] | did not elicit a significant effect | 15-20% | not blocked | not blocked | preferentially reduces basal fluorescence counts | no effect | – |
| NC(=Nc1ccccc1)NC(=O)c1nc(Cl)c(N)nc1N [phenamil] | did not elicit a significant effect | – | – | – | – | – | – |
| B1 | – | – | – | – | – | – | 2 fold against A419P cDNA alone |
